Test results reported in US12594276B2, “Inhibitors of human immunodeficiency virus replication” (ViiV Healthcare UK (No.5) Limited, priority 2024, dated 2026).
pEC50: −log10 of the molar value. Like-named read-outs stand apart in the source and are kept apart here.

Assays:
[1] = tested on: recombinant NL4-3 virus (nef section replaced with Renilla luciferase gene) in MT-2 cells; assay: HIV cell culture assay (antiviral activity, luciferase readout); format: cell-based; conditions: Renilla, NL43, MT-2 cells infected for 4-5 days with recombinant NL4-3 Renilla luciferase virus
Procedure, shortened: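 Read-out: Renilla luciferase (live-cell substrate) in infected MT-2 cells after 4-5 d with serial compound dilutions. Virus from 293T transfection of the proviral clone, titered by luciferase in MT-2. EC50 via median effect equation fit.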

[2] = Compound cytotoxicity, XTT-based colorimetric assay; format: cell-based; conditions: human
Procedure, shortened: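 Uninfected MT2 cells, antiviral-assay protocol without virus; XTT colorimetric readout day 4; CC50 reported.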

[3] = uninfected MT2 cells, day 4, XTT, read-out: CC50

| SMILES | pEC50 [1] | CC50 at 4 days [2, 3] | CC50 at 4 days [2] |
| --- | --- | --- | --- |
| Cc1cc(C2(F)CCC(F)(F)CC2)nc2nc([C@H](Cc3cc(F)cc(F)c3)NC(=O)Cn3nc([C@H]4CC4(F)F)c4c3C[C@H]3C[C@@H]43)n(-c3ccc(Cl)c4c(NS(C)(=O)=O)nn(CCN5C[C@H](F)C[C@H](F)C5)c34)c(=O)c12 (atropisomer, axis not shown; (P)) [Example 573, N-[(1S)-1-[(3P)-3-(4-chloro-1-{2-[(3R,5S)-3,5-difluoropiperidin-1-yl]ethyl}-3-methanesulfonamido-1H-indazol-7-yl)-5-methyl-4-oxo-7-(1,4,4-trifluorocyclohexyl)-3H,4H-pyrido[2,3-d]pyrimidin-2-yl]-2-(3,5-difluorophenyl)ethyl]-2-[(2R,4R)-9-[(1R)-2,2-difluorocyclopropyl]-7,8-diazatricyclo[4.3.0.0^2,^4]nona-1(6),8-dien-7-yl]acetamide] | 10.92 | > 20 nM | – |
| Cc1cc(C2CCC(F)(F)CC2)nc2nc([C@H](Cc3cc(F)cc(F)c3)NC(=O)Cn3nc(C(F)F)c4c3C(F)(F)[C@@H]3C[C@H]43)n(-c3ccc(Cl)c4c(NS(C)(=O)=O)nn(CCN5C[C@@H](C)OC(C)(C)C5)c34)c(=O)c12 (atropisomer, axis not shown; (P)) [Example 454, N-[(1S)-1-[(3P)-3-(4-chloro-3-methanesulfonamido-1-{2-[(6R)-2,2,6-trimethylmorpholin-4-yl]ethyl}-1H-indazol-7-yl)-7-(4,4-difluorocyclohexyl)-5-methyl-4-oxo-3H, 4H-pyrido[2,3-d]pyrimidin-2-yl]-2-(3,5-difluorophenyl)ethyl]-2-[(2S,4R)-9-(difluoromethyl)-5,5-difluoro-7,8-diazatricyclo[4.3.0.0^2,^4]nona-1(6),8-dien-7-yl]acetamide] | 11.00 | > 20 nM | – |
| Cc1cc(C2(F)CCC(F)(F)CC2)nc2nc([C@H](Cc3cc(F)cc(F)c3)NC(=O)Cn3nc(C(F)F)c4c3C(F)(F)[C@@H]3C[C@H]43)n(-c3ccc(Cl)c4c(NS(C)(=O)=O)nn(CCN5CCO[C@H](C(C)C)C5)c34)c(=O)c12 (atropisomer, axis not shown; (P)) [Example 575, N-[(1S)-1-[(3P)-3-(4-chloro-3-methanesulfonamido-1-{2-[(2R)-2-(propan-2-yl)morpholin-4-yl]ethyl}-1H-indazol-7-yl)-5-methyl-4-oxo-7-(1,4,4-trifluorocyclohexyl)-3H,4H-pyrido[2,3-d]pyrimidin-2-yl]-2-(3,5-difluorophenyl)ethyl]-2-[(2S,4R)-9-(difluoromethyl)-5,5-difluoro-7,8-diazatricyclo[4.3.0.0^2,^4]nona-1(6),8-dien-7-yl]acetamide] | 10.92 | > 20 nM | – |
| COCCNc1cc(C2CCC(F)(F)CC2)nc2nc([C@H](Cc3cc(F)cc(F)c3)NC(=O)Cn3nc(C(F)F)c4c3C(F)(F)[C@@H]3C[C@H]43)n(-c3ccc(Cl)c4c(NS(C)(=O)=O)nn(CCN5C[C@H]6CC[C@@H](C5)O6)c34)c(=O)c12 (atropisomer, axis not shown; (P)) [Example 420, N-[(1S)-1-[(3P)-3-(4-chloro-3-methanesulfonamido-1-{2-[(1R,5S)-8-oxa-3-azabicyclo[3.2.1]octan-3-yl]ethyl}-1H-indazol-7-yl)-7-(4,4-difluorocyclohexyl)-5-[(2-methoxyethyl)amino]-4-oxo-3H,4H-pyrido[2,3-d]pyrimidin-2-yl]-2-(3,5-difluorophenyl)ethyl]-2-[(2S,4R)-9-(difluoromethyl)-5,5-difluoro-7,8-diazatricyclo[4.3.0.0^2,^4]nona-1(6),8-dien-7-yl]acetamide] | 10.96 | > 20 nM | – |
| CS(=O)(=O)Nc1nn(CCN2C[C@@H](F)[C@@H](F)C2)c2c(-n3c([C@H](Cc4cc(F)cc(F)c4)NC(=O)Cn4nc(C(F)F)c5c4C(F)(F)[C@@H]4C[C@H]54)nc4nc(C5CCC(F)(F)CC5)ccc4c3=O)ccc(Cl)c12 (atropisomer, axis not shown; (P)) [Example 26, N-[(1S)-1-[(3P)-3-(4-chloro-1-{2-[(3R,4S)-3,4-difluoropyrrolidin-1-yl]ethyl}-3-methanesulfonamido-1H-indazol-7-yl)-7-(4,4-difluorocyclohexyl)-4-oxo-3H,4H-pyrido[2,3-d]pyrimidin-2-yl]-2-(3,5-difluorophenyl)ethyl]-2-[(2S,4R)-9-(difluoromethyl)-5,5-difluoro-7,8-diazatricyclo[4.3.0.0^2,^4]nona-1(6),8-dien-7-yl]acetamide] | 10.96 | > 50 nM | – |
| COCCCn1nc(NS(C)(=O)=O)c2c(Cl)ccc(-n3c([C@H](Cc4cc(F)cc(F)c4)NC(=O)Cn4nc(C(F)F)c5c4C(F)(F)[C@@H]4C[C@H]54)nc4nc(C5CCC(F)(F)CC5)cc(NCCN5CCC5)c4c3=O)c21 (atropisomer, axis not shown; (P)) [Example 500, N-[(1S)-1-[(3P)-5-{[2-(azetidin-1-yl)ethyl]amino}-3-[4-chloro-3-methanesulfonamido-1-(3-methoxypropyl)-1H-indazol-7-yl]-7-(4,4-difluorocyclohexyl)-4-oxo-3H,4H-pyrido[2,3-d]pyrimidin-2-yl]-2-(3,5-difluorophenyl)ethyl]-2-[(2S,4R)-9-(difluoromethyl)-5,5-difluoro-7,8-diazatricyclo[4.3.0.0^2,^4]nona-1(6),8-dien-7-yl]acetamide] | 10.31 | > 20 nM | – |
| COCCCn1nc(NS(C)(=O)=O)c2c(Cl)ccc(-n3c([C@H](Cc4cc(F)cc(F)c4)NC(=O)Cn4nc(C(F)F)c5c4C(F)(F)[C@@H]4C[C@H]54)nc4nc(C5CCC(F)(F)CC5)cc(NC[C@@H]5CCCOC5)c4c3=O)c21 (atropisomer, axis not shown; (P)) [Example 428, N-[(1S)-1-[(3P)-3-[4-chloro-3-methanesulfonamido-1-(3-methoxypropyl)-1H-indazol-7-yl]-7-(4,4-difluorocyclohexyl)-5-({[(3S)-oxan-3-yl]methyl}amino)-4-oxo-3H,4H-pyrido[2,3-d]pyrimidin-2-yl]-2-(3,5-difluorophenyl)ethyl]-2-[(2S,4R)-9-(difluoromethyl)-5,5-difluoro-7,8-diazatricyclo[4.3.0.0^2,^4]nona-1(6),8-dien-7-yl]acetamide] | 10.70 | > 20 nM | – |
| COCCCn1nc(NS(C)(=O)=O)c2c(Cl)ccc(-n3c([C@H](Cc4cc(F)cc(F)c4)NC(=O)Cn4nc(C(F)F)c5c4C(F)(F)[C@@H]4C[C@H]54)nc4nc(C5CCC(F)(F)CC5)cc(NCCN5CCOCC5)c4c3=O)c21 (atropisomer, axis not shown; (P)) [Example 430, N-[(1S)-1-[(3P)-3-[4-chloro-3-methanesulfonamido-1-(3-methoxypropyl)-1H-indazol-7-yl]-7-(4,4-difluorocyclohexyl)-5-{[2-(morpholin-4-yl)ethyl]amino}-4-oxo-3H,4H-pyrido[2,3-d]pyrimidin-2-yl]-2-(3,5-difluorophenyl)ethyl]-2-[(2S,4R)-9-(difluoromethyl)-5,5-difluoro-7,8-diazatricyclo[4.3.0.0^2,^4]nona-1(6),8-dien-7-yl]acetamide] | 10.96 | > 20 nM | – |
| Cc1cc(C2(F)CCC(F)(F)CC2)nc2nc([C@H](Cc3cc(F)cc(F)c3)NC(=O)Cn3nc(C(F)F)c4c3C(F)(F)[C@@H]3C[C@H]43)n(-c3ccc(Cl)c4c(NS(C)(=O)=O)nn(CCN5[C@@H]6CC[C@H]5COC6)c34)c(=O)c12 (atropisomer, axis not shown; (P)) [Example 590, N-[(1S)-1-[(3P)-3-(4-chloro-3-methanesulfonamido-1-{2-[(1R,5S)-3-oxa-8-azabicyclo[3.2.1]octan-8-yl]ethyl}-1H-indazol-7-yl)-5-methyl-4-oxo-7-(1,4,4-trifluorocyclohexyl)-3H,4H-pyrido[2,3-d]pyrimidin-2-yl]-2-(3,5-difluorophenyl)ethyl]-2-[(2S,4R)-9-(difluoromethyl)-5,5-difluoro-7,8-diazatricyclo[4.3.0.0^2,^4]nona-1(6),8-dien-7-yl]acetamide] | 10.89 | – | > 20 nM |
| COCCCn1nc(NS(C)(=O)=O)c2c(Cl)ccc(-n3c([C@H](Cc4cc(F)cc(F)c4)NC(=O)Cn4nc(C(F)F)c5c4C(F)(F)[C@@H]4C[C@H]54)nc4nc(C5CCC(F)(F)CC5)cc(NCC(C)(C)N5CCCCC5)c4c3=O)c21 (atropisomer, axis not shown; (P)) [Example 539, N-[(1S)-1-[(3P)-3-[4-chloro-3-methanesulfonamido-1-(3-methoxypropyl)-1H-indazol-7-yl]-7-(4,4-difluorocyclohexyl)-5-{[2-methyl-2-(piperidin-1-yl)propyl]amino}-4-oxo-3H,4H-pyrido[2,3-d]pyrimidin-2-yl]-2-(3,5-difluorophenyl)ethyl]-2-[(2S,4R)-9-(difluoromethyl)-5,5-difluoro-7,8-diazatricyclo[4.3.0.0^2,^4]nona-1(6),8-dien-7-yl]acetamide] | 11.22 | > 20 nM | – |
| COCCCn1nc(NS(C)(=O)=O)c2c(Cl)ccc(-n3c([C@H](Cc4cc(F)cc(F)c4)NC(=O)Cn4nc(C(F)F)c5c4C(F)(F)[C@@H]4C[C@H]54)nc4nc(C5CCC(F)(F)CC5)cc(NCCN5CC(F)(F)C5)c4c3=O)c21 (atropisomer, axis not shown; (P)) [Example 517, N-[(1S)-1-[(3P)-3-[4-chloro-3-methanesulfonamido-1-(3-methoxypropyl)-1H-indazol-7-yl]-5-{[2-(3,3-difluoroazetidin-1-yl)ethyl]amino}-7-(4,4-difluorocyclohexyl)-4-oxo-3H,4H-pyrido[2,3-d]pyrimidin-2-yl]-2-(3,5-difluorophenyl)ethyl]-2-[(2S,4R)-9-(difluoromethyl)-5,5-difluoro-7,8-diazatricyclo[4.3.0.0^2,^4]nona-1(6),8-dien-7-yl]acetamide] | 11.05 | > 20 nM | – |
